Data on one molecule can be found in patent US20040204486A1, “Anandamide and structurally related lipids as vanilloid receptor modulators” (priority 2000, published 2004).

A word on the Emax: it is the greatest response seen or fitted, relative to the assay's reference. As a reminder, the Ki is a measure of affinity in units of concentration, obtained from inhibition or displacement.

One test has as its system rat hepatic artery. The experiment in a line: Recording of tension: relaxation of isolated rat hepatic artery contracted with phenylephrine.
For test [1], the target named is cannabinoid CB1 receptors (Homo sapiens, UniProt P21554). The note with it: cited from earlier work.
Sequence of cannabinoid CB1 receptors (P21554 whole entry): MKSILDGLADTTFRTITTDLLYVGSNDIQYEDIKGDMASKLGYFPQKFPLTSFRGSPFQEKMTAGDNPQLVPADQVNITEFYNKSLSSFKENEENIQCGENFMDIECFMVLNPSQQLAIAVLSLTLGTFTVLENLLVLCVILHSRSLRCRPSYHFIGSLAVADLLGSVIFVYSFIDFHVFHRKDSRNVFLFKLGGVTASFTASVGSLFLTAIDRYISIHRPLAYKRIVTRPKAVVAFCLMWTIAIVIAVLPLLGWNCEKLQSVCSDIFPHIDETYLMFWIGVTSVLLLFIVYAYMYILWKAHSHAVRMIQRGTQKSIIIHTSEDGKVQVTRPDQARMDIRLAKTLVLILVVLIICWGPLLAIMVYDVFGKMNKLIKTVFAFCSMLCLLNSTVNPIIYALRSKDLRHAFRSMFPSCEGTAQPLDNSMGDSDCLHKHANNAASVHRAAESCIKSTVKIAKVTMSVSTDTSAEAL

Take `CCCCCC=CCC=CCC=CCC=CCCCC(=O)Nc1ccc(O)cc1` [AM404, N-(4-hydroxyphenyl)-5,8,11,14-eicosatetraenamide]: the “vasodilator potency compared to anandamide” value in the test with rat hepatic artery is recorded as approximately 10 times. In the test on rat hepatic artery (Rattus norvegicus, control (agonist alone)), this molecule registered an Emax of 97 ± 2%. For the same molecule, the EC50 in the test with rat hepatic artery (Rattus norvegicus, control (agonist alone), read-out: pEC50 of relaxation (converted)) was 39.8 nM. The “effect on anandamide-induced relaxation” value with rat hepatic artery (capsaicin 10 μM pre-treatment, 8-37 CGRP 2 μM, capsazepine 3 μM) is reported as “inhibited this response”. Moreover, the pEC50 of relaxation in the test with rat hepatic artery (control (agonist alone)) is reported as 7.3±0.2; in the test on rat hepatic artery (in presence of capsazepine (3 μM)) it was 6.4±0.2. Further, in test [1], the Ki is 1760 nM.
